Consider two compounds from PMC3160846 (PLoS ONE, 2011).

In data set [1] the test system is human cervical carcinoma KB xenografts. Nature of the data set: KB xenograft in nude mice. The data set is classed as in vivo. To be noted: for decrease in tumor volume: day 30, BPR1K653 15 mg/kg or VX680 30 mg/kg i.p. How it is done:
Under in vivo conditions, tumors were dissected from the euthanized mice and instantly stored under −80°C. Tumor tissue sections were prepared from the use of cryostats (Leica Microsystems, Buffalo Grove, IL), and subsequently fixed with ice-cold methanol. Tissue sections were stained by the TUNEL reagent using Fluorescent (green) In-Situ Apoptosis Detection Kit (catalog number #11684795910, Roche Diagnostic, Mannheim, Germany). Cells were counterstained with DAPI to detect nucleus, and examined by fluorescence microscopy. Amount of green fluorescence labeled (DNA fragmented) cells were counted and percentage of apoptotic cells were calculated as follows: Amount of green fluorescence labeled cells ÷ Total cells available×100. Experiments were repeated independently at least two times.
Male nude mice (5–6-weeks-old) were purchased from the National Laboratory Animal Centre (Taiwan R.O.C.). The animals were s.c. implanted with 5×10^5 KB cells or 1×10^6 KB-VIN10 cells mixed with equal volume of Matrigel (Becton Dickinson) in 0.1 mL at one flank per mouse via a 22-gauge needle. Tumor growth was examined twice a week after implantation, and the volume of tumor mass was measured with an electronic caliper and calculated as 1/2×length×width^2 in mm^3.
BPR1K653 was dissolved completely in a vehicle mixture of DMSO/cremophor/saline (1∶2∶7). Selected dose of BPR1K653 was decided base on the following conditions: 1/2 of the dosage that caused noticeable body weight loss (>10%) in the treated mice during toxicity study. […] The control group (5 mice) was treated with vehicle mixture only. Tumor size and animal body weight were measured every three days after drug treatment. Toxicity was evaluated based on the body weight reduction. At the end of the experiments (tumor size of the control >2000 mm^3), animals were euthanized with carbon dioxide.
Tumors were harvested and instantly stored at −80°C. Frozen cryostat sections were fixed with ice-cold methanol for 10 min. After washing with PBS, endogenous peroxidase was blocked using 3% hydrogen peroxide in TBS for 5 min. Immunostaining process was carried out according to the user's manual of the ABC Peroxidase Staining Kit (Pierce Biotechnology, Rockford, IL). Briefly, the tissues were incubated with a protein-blocking solution for 20 min, and subsequently stained with an anti-phosphorylated Histone H3 (Ser10) polyclonal antibody for 1 hour at room temperature. Then, the samples were incubated with the ABC reagent for 30 min, and subsequently incubated with the metal enhanced DAB substrate. The sections were counterstained with hematoxylin.

Data set [2] deals with KB cells. The experiment in a line: Clonogenic assay, KB. The data set is classed as cell-based, Human. As to conditions: Homo sapiens, cervical, p53 wild-type, MDR1 negative (parental), read-out: IC50, anti-proliferative activity. How it is done: (§1) Human lung adenocarcinoma A549 cells and NTUB1 bladder cancer cells were maintained in RPMI supplied with 10% fetal bovine serum. […] KB-derived MRP1-expressing cell line, KB-7D, was maintained in growth medium supplemented with 7 µM VP-16.
(§2) Two hundred cells in logarithmic growth phase were seeded in a 6-well plate. The cells were exposed to various concentrations of the test drugs for a three-generation period. At the end of the incubation period, cells were fixed and stained with 50% ethanol containing 0.5% methylene blue for 30 min. The plates were washed five times with water and allowed to air-dry. Colonies were countered manually. […] Each value represents the average of at least three independent experiments run in triplicates.

Data set [3] concerns MV4-11 cells. Nature of the data set: Clonogenic assay, MV4-11. The class given is cell-based, Human. As to conditions: Homo sapiens; MV4-11, leukemia, p53 mutant, MDR1 negative; read-out: IC50, anti-proliferative activity. How it is done:
as §1, §2

The subject of data set [4] is KB-VIN10 cells. Nature of the data set: Western blot of Histone H3 phosphorylation and cyclin B1, KB-VIN10. The class given is cell-based, Human. To be noted: for Histone H3 phosphorylation and cyclin B1 expression: KB-VIN10, 48 h, BPR1K653 12, 24, 36 nM, VX680 170 and 255 nM. How it is done:
Cells were lysed with ice-cold lysis buffer (10 mM Tris, 1 mM EDTA, 1 mM DTT, 60 mM KCl, 0.5% NP-40 and protease inhibitors). […] The resolved proteins were electrophoretically transferred to PVDF membranes (Amersham Life Science, Amersham, U.K.) for Western blot analysis. The membranes were blocked with 5% non-fat milk at room temperature for two hours, washed twice with TBST (1% Tween) and then incubated with either anti-phosphorylated Aurora-A/-B/-C kinase antibody (#2914S, Cell Signaling Technology, Danvers, MA), anti-Aurora-A and -B kinase antibody (#ab1287 and #ab2254, Abcam, Cambridge, MA), anti-phosphorylated Histone H3 antibody (#9701, Cell Signaling Technology, Danvers, MA), anti-Histone H3 antibody (#9715, Cell Signaling Technology, Danvers, MA), anti-Cyclin B1 antibody or anti-Actin antibody (#sc-245 and #sc-130065, Santa Cruz Biotechnology, Santa Cruz, CA) overnight at 4°C. Membranes were washed twice with TBST then subsequently incubated with a horseradish peroxidase-conjugated secondary antibody (Santa Cruz Biotechnology, Santa Cruz, CA) for 1 hour at room temperature. Immunoreactivity was detected by Enhanced Chemiluminescence (Amersham International, Buckingham, U.K.) and autoradiography. Experiments were repeated independently at least two times.
Background: In western blotting, separated proteins are transferred to a membrane and probed.

In data set [5] the test system is IM9 cells. The experiment in a line: Clonogenic assay, IM9. The class given is cell-based, Human. As to conditions: Homo sapiens; IM9, lymphoma, p53 wild-type, MDR1 negative; read-out: IC50, anti-proliferative activity. As for the experimental part:
as §1, §2

Data set [6] relates to KB cells. The experiment in a line: Apoptosis assays (Annexin-V, caspase-3/-7 imaging, TUNEL), KB. The data set is classed as cell-based, Human. To be noted: 48-72 h. As for the experimental part:
Cells were cultured in chamber-slides, incubated with test agents for 48 h, and washed twice with PBS. Cells were labeled with Annexin-V-FLUOS reagent (catalog number #11858777001, Roche, Indianapolis, IN) for 30 min at room temperature. The cells were analyzed by fluorescence microscopy.
Caspase-3/-7 activity was analyzed with the MagicRed™ DEVD real-time caspase activity detection kit (catalog number #935, Immunochemistry Technologies LLC, Bloomington, MN). Briefly, cells were cultured in chamber-slides and incubated with test agents for various durations. Cells were then incubated with the Caspase-3/-7 substrate MR-(DEVD2) in culture medium for 1 hour, and then co-incubated with Hoechst 33342 for 15 min. Cells were viewed with a UV-enabled inverted-microscope at an excitation wavelength of 540 nm–560 nm and emission at 610 nm. Experiments were repeated independently at least two times.
Under in vitro conditions, cells were seeded and cultured in 8-well chamber-slides, and treated with various compounds. […] Cells were counterstained with DAPI to detect the nucleus, and examined by fluorescence microscopy. Amount of red fluorescence labeled (DNA fragmented) cells were counted and percentage of apoptotic cells were calculated as follows: Amount of the red fluorescence labeled cells ÷ Total cells available×100. […]

The subject of data set [7] is NTU0.017 cells. The experiment in a line: Clonogenic assay, NTU0.017. The data set is classed as cell-based, Human. As to conditions: for IC50: Homo sapiens, NTU0.017, paclitaxol resistant, MDR1 ↑, read-out: IC50, anti-proliferative activity. How it is done: as §1, §2

In general, IC50 refers to the concentration needed to halve the response being measured. Turning to `Cc1cc(Nc2cc(N3CCN(C)CC3)nc(Sc3ccc(NC(=O)C4CC4)cc3)n2)[nH]n1` [VX680], the “decrease in tumor volume” value in data set [1] (5 days/week for 2 weeks) is about 68%. Moreover, the IC50 in data set [2] was found to be 85 ± 31 nM; in data set [3] it was 15 ± 4 nM; in data set [5] it was 31 ± 16 nM; in data set [7], 6770 ± 1080 nM. In addition, the “Histone H3 phosphorylation and cyclin B1 expression” value in data set [4] is “could not induce the above molecular changes”. The “Histone H3 phosphorylation and cyclin B1 expression, with verapamil” value in data set [4] (KB-VIN10, + verapamil 10 µM) was “restore the sensitivity to VX680”. Also, the “apoptosis: phosphatidylserine translocation, caspase-3/-7 activity, DNA fragmentation” value in data set [6] is “only induced the translocation of the phosphatidylserine molecule, caspase-3/-7 activity and DNA fragmentation in KB cells”.

On to `CN(C)Cc1ccccc1NC(=O)Nc1ccc(CCNc2ncnc3oc(-c4ccccc4)c(Cl)c23)cc1` [BPR1K653], for which the “phosphor-Histone H3 positive cells present in tumor tissues” value in data set [1] (15 mg/kg i.p., 24 h after second administration, control 60%) is recorded as 10%. In addition, in data set [1] (15 mg/kg i.p., 5 days/week for 2 weeks, vs control group), the “loss of body weight after treatment” value is given as “less than 10%”. Moreover, the “apoptotic cells present in the tumor tissue (TUNEL)” value in data set [1] (15 mg/kg i.p., 12 days post-treatment, control 7%) amounted to 55%. The “decrease in tumor volume” value in data set [1] (5 days/week for 2 weeks) was about 73%. Also, the half-maximal inhibitory concentration (IC50) was determined as 12 ± 4 nM in data set [2], 5 nM in data set [3], 4 ± 2 nM in data set [5] and 10 ± 4 nM in data set [7]. Further, in data set [4], the “Histone H3 phosphorylation and cyclin B1 expression” value was “inhibition of Histone H3 phosphorylation and down-regulation of cyclin B1 expression”. Further, the “apoptosis: phosphatidylserine translocation, caspase-3/-7 activity, DNA fragmentation” value in data set [6] was “induced the caspase-3/-7 activity and DNA fragmentation”. In data set [7] (NTU0.017 vs NTUB1), the “Fold difference as compare to the IC50 in the respective parental cells” value is 1 fold.
